Reference: ChEMBL document CHEMBL3044870, “Effect of clomazone on various market classes of dry beans” (Crop Prot, 2007)

Tests used:
Type in all cases: organism-based
Details in all cases: in vivo
[1] = test system: Phaseolus vulgaris; experiment: Phytotoxicity against Phaseolus vulgaris (white beans) assessed as crop injury
[2] = test system: Phaseolus vulgaris; experiment: Phytotoxicity against Phaseolus vulgaris (kidney bean) assessed as crop injury
[3] = test system: Phaseolus vulgaris; experiment: Phytotoxicity against Phaseolus vulgaris (white beans) assessed as reduction in plant height applied pre-emergence relative to control; set-up: scale not given: the % may be the effect or the level left
[4] = test system: Phaseolus vulgaris; experiment: Phytotoxicity against Phaseolus vulgaris (black beans) assessed as reduction in plant height applied pre-emergence relative to control; set-up: scale not given: the % may be the effect or the level left
[5] = test system: Phaseolus vulgaris; experiment: Phytotoxicity against Phaseolus vulgaris (cranberry beans) assessed as crop injury
[6] = test system: Phaseolus vulgaris; experiment: Phytotoxicity against Phaseolus vulgaris (pink beans) assessed as crop injury
[7] = test system: Phaseolus vulgaris; experiment: Phytotoxicity against yellow eye bean assessed as reduction in shoot dry weight applied pre-emergence relative to control; set-up: scale not given: the % may be the effect or the level left
[8] = test system: Phaseolus vulgaris; experiment: Phytotoxicity against Phaseolus vulgaris (white beans) assessed as reduction in shoot dry weight applied pre-emergence relative to control; set-up: scale not given: the % may be the effect or the level left
[9] = test system: Phaseolus vulgaris; experiment: Phytotoxicity against Phaseolus vulgaris (pinto beans)s assessed as reduction in shoot dry weight applied pre-emergence relative to control; set-up: scale not given: the % may be the effect or the level left
[10] = test system: Phaseolus vulgaris; experiment: Phytotoxicity against Phaseolus vulgaris (otebo beans) assessed as reduction in shoot dry weight applied pre-emergence relative to control; set-up: scale not given: the % may be the effect or the level left
[11] = test system: Phaseolus vulgaris; experiment: Phytotoxicity against Phaseolus vulgaris (black beans) assessed as reduction in shoot dry weight applied pre-emergence relative to control; set-up: scale not given: the % may be the effect or the level left
[12] = test system: Phaseolus vulgaris; experiment: Phytotoxicity against yellow eye bean assessed as reduction in plant height applied pre-emergence relative to control; set-up: scale not given: the % may be the effect or the level left
[13] = test system: Phaseolus vulgaris; experiment: Phytotoxicity against Phaseolus vulgaris (pinto beans) assessed as reduction in plant height applied pre-emergence relative to control; set-up: scale not given: the % may be the effect or the level left
[14] = test system: Phaseolus vulgaris; experiment: Phytotoxicity against Phaseolus vulgaris (otebo beans) assessed as reduction in plant height applied pre-emergence relative to control; set-up: scale not given: the % may be the effect or the level left
[15] = test system: Phaseolus vulgaris; experiment: Phytotoxicity against Phaseolus vulgaris (black beans) assessed as reduction in shoot dry weight relative to control; set-up: scale not given: the % may be the effect or the level left

| SMILES | Activity [1] [%] | Activity [2] [%] | Activity [3] [%] | Activity [4] [%] | Activity [5] [%] | also measured |
| --- | --- | --- | --- | --- | --- | --- |
| CCc1cccc(CC)c1N(COC)C(=O)CCl [ALACHLOR] | 6 | 0.5 |  |  |  |  |
| C#CCN1C(=O)COc2cc(F)c(N3C(=O)C4=C(CCCC4)C3=O)cc21 [FLUMIOXAZIN] | 17 |  | 28 | 23 | 4 |  |
| CS(=O)(=O)NC(=O)c1cc(Oc2ccc(C(F)(F)F)cc2Cl)ccc1[N+](=O)[O-] [FOMESAFEN] |  | 1 |  |  |  | Activity [6]: 5% |
| CCc1cnc(C2=NC(C)(C(C)C)C(=O)N2)c(C(=O)O)c1 (stereo not given) [IMAZETHAPYR] | 11 | 2 | 40 | 40 |  |  |
| CON(C)C(=O)Nc1ccc(Cl)c(Cl)c1 [LINURON] | 49 |  | 24 | 24 | 4 | Activity [7]: 26%; Activity [8]: 26%; Activity [9]: 26%; Activity [10]: 26%; Activity [11]: 26%; Activity [12]: 24%; Activity [13]: 24%; Activity [14]: 24% |
| CCc1cccc(C)c1N(C(=O)CCl)[C@@H](C)COC [S-METOLACHLOR] |  |  |  |  |  | Activity [15]: 16% |
